Source: patent publication US20200288711A1, “Pyrimidin-4-Carbamate or Urea Derivatives As Herbicides” (Syngenta Participations AG, priority 2017, published 2020)

Columns and labels:
Assay type in all cases: in vivo
[1] = tested on: Echinochloa crus-galli (ECHCG); experiment: B1 pre-emergence herbicidal activity; set-up: key to Pre-emergence herbicidal activity, ECHCG: 5=total damage to plant; 0=no damage to plant; settings: Test 1b, rate 1000 g/ha, evaluated after 13 days, score 0-5 (5=total damage, 0=no damage)
Experimental: (§1) Seeds of a variety of test species were sown in standard soil in pots: Triticum aestivium (TRZAW), Avena fatua (AVEFA), Alopecurus myosuroides (ALOMY), Echinochloa crus-galli (ECHCG), Lolium perenne (LOLPE), Zea mays (ZEAMX), Abutilon theophrasti (ABUTH), Amaranthus retroflexus (AMARE) and Setaria faberi (SETFA). After cultivation for one day (pre-emergence) under controlled conditions in a glasshouse (at 24/16° C., day/night; 14 hours light; 65% humidity), the plants were sprayed with an aqueous spray solution derived from the formulation of the technical active ingredient in acetone/water (50:50) solution containing 0.5% Tween 20 (polyoxyethelyene sorbitan monolaurate, CAS RN 9005-64-5). The test plants were then grown in a glasshouse under controlled conditions (at 24/16° C., day/night; 14 hours light; 65% humidity) and watered twice daily. After 13 days, the test was evaluated (5=total damage to plant; 0=no damage to plant).

[2] = tested on: Alopecurus myosuroides (ALOMY); experiment: B2 post-emergence herbicidal activity; set-up: key: 5=total damage to plant; 0=no damage to plant; settings: Test 2b, rate 1000 g/ha, evaluated after 13 days, score 0-5 (5=total damage, 0=no damage)
Experimental: (§2) Seeds of a variety of test species were sown in standard soil in pots: Triticum aestivium (TRZAW), Avena fatua (AVEFA), Alopecurus myosuroides (ALOMY), Echinochloa crus-galli (ECHCG), Lolium perenne (LOLPE), Zea mays (ZEAMX), Abutilon theophrasti (ABUTH), Amaranthus retroflexus (AMARE) and Setaria faberi (SETFA). After 8 days cultivation (post-emergence) under controlled conditions in a glasshouse (at 24/16° C., day/night; 14 hours light; 65% humidity), the plants were sprayed with an aqueous spray solution derived from the formulation of the technical active ingredient in acetone/water (50:50) solution containing 0.5% Tween 20 (polyoxyethelyene sorbitan monolaurate, CAS RN 9005-64-5). The test plants were then grown in a glasshouse under controlled conditions (at 24/16° C., day/night; 14 hours light; 65% humidity) and watered twice daily. After 13 days, the test was evaluated (5=total damage to plant; 0=no damage to plant).

[3] = tested on: Setaria faberi (SETFA); experiment: B2 post-emergence herbicidal activity; set-up: key: 5=total damage to plant; 0=no damage to plant; settings: Test 2b, rate 1000 g/ha, evaluated after 13 days, score 0-5 (5=total damage, 0=no damage)
Experimental: as §2

[4] = tested on: Avena fatua (AVEFA); experiment: B2 post-emergence herbicidal activity; set-up: key: 5=total damage to plant; 0=no damage to plant; settings: Test 2b, rate 1000 g/ha, evaluated after 13 days, score 0-5 (5=total damage, 0=no damage)
Experimental: as §2

[5] = tested on: Echinochloa crus-galli (ECHCG); experiment: B2 post-emergence herbicidal activity; set-up: key: 5=total damage to plant; 0=no damage to plant; settings: Test 2b, rate 1000 g/ha, evaluated after 13 days, score 0-5 (5=total damage, 0=no damage)
Experimental: as §2

[6] = tested on: Lolium perenne (LOLPE); experiment: B2 post-emergence herbicidal activity; set-up: key: 5=total damage to plant; 0=no damage to plant; settings: Test 2b, rate 1000 g/ha, evaluated after 13 days, score 0-5 (5=total damage, 0=no damage)
Experimental: as §2

[7] = tested on: Triticum aestivium (TRZAW); experiment: B2 post-emergence herbicidal activity; set-up: key: 5=total damage to plant; 0=no damage to plant; settings: Test 2b, rate 1000 g/ha, evaluated after 13 days, score 0-5 (5=total damage, 0=no damage)
Experimental: as §2

[8] = tested on: Setaria faberi (SETFA); experiment: B1 pre-emergence herbicidal activity; set-up: key to Pre-emergence herbicidal activity, SETFA: 5=total damage to plant; 0=no damage to plant; settings: Test 1b, rate 1000 g/ha, evaluated after 13 days, score 0-5 (5=total damage, 0=no damage)
Experimental: as §1

[9] = tested on: Alopecurus myosuroides (ALOMY); experiment: B1 pre-emergence herbicidal activity; set-up: key: 5=total damage to plant; 0=no damage to plant; settings: Test 1b, rate 1000 g/ha, evaluated after 13 days, score 0-5 (5=total damage, 0=no damage)
Experimental: as §1

[10] = tested on: Avena fatua (AVEFA); experiment: B1 pre-emergence herbicidal activity; set-up: key: 5=total damage to plant; 0=no damage to plant; settings: Test 1b, rate 1000 g/ha, evaluated after 13 days, score 0-5 (5=total damage, 0=no damage)
Experimental: as §1

[11] = tested on: Lolium perenne (LOLPE); experiment: B1 pre-emergence herbicidal activity; set-up: key: 5=total damage to plant; 0=no damage to plant; settings: Test 1b, rate 1000 g/ha, evaluated after 13 days, score 0-5 (5=total damage, 0=no damage)
Experimental: as §1

[12] = tested on: Triticum aestivium (TRZAW); experiment: B1 pre-emergence herbicidal activity; set-up: key: 5=total damage to plant; 0=no damage to plant; settings: Test 1b, rate 1000 g/ha, evaluated after 13 days, score 0-5 (5=total damage, 0=no damage)
Experimental: as §1

Row | SMILES | Pre-emergence herbicidal activity, ECHCG [1] | Control of weed species after post-emergence application, ALOMY [2] | Control of weed species after post-emergence application, SETFA [3] | Control of weed species after post-emergence application, AVEFA [4] | Control of weed species after post-emergence application, ECHCG [5] | Control of weed species after post-emergence application, LOLPE [6] | Control of weed species after post-emergence application, TRAZW [7] | Pre-emergence herbicidal activity, SETFA [8] | Pre-emergence herbicidal activity, ALOMY [9] | Pre-emergence herbicidal activity, AVEFA [10] | Pre-emergence herbicidal activity, LOLPE [11] | Pre-emergence herbicidal activity, TRAZW [12]
1 | Cc1nc(-c2cncnc2)ncc1N(C)C(=O)OC(C)(C)C [Compound E3] | 4 | 2 | 5 | 4 | 4 | 3 | 1 | 4 | 1 | 4 | 1 | 0
2 | CC(C)(C)OC(=O)Nc1cnc(-c2cncc(F)c2)nc1C(F)(F)F [Compound E4, tert-butyl N-[2-(5-fluoro-3-pyridyl)-4-(trifluoromethyl)pyrimidin-5-yl]carbamate] | 4 | 1 | 5 | 4 | 4 | 3 | 1 | 4 | 0 | 4 | 1 | 0
3 | CN(C(=O)OC(C)(C)C)c1cnc(-c2cncc(F)c2)nc1C(F)(F)F [Compound E5] | 3 | 0 | 5 | 4 | 4 | 2 | 0 | 5 | 0 | 3 | 1 | 0
4 | C=CCN(C(=O)OC(C)(C)C)c1cnc(-c2cncnc2)nc1C [Compound E6] | 3 | 1 | 5 | 2 | 3 | 1 | 1 | 5 | 0 | 1 | 1 | 0
5 | Cc1nc(-c2cncnc2)ncc1NC(=O)OC(C)(C)C [Compound E7, tert-butyl N-(4-methyl-2-pyrimidin-5-yl-pyrimidin-5-yl)carbamate] | 5 | 0 | 4 | 3 | 4 | 2 | 0 | 4 | 0 | 2 | 1 | 0
6 | O=C(Nc1cnc(-c2cncc(F)c2)nc1C(F)(F)F)N1CCOCC1 [Compound E8, N-[2-(5-fluoro-3-pyridyl)-4-(trifluoromethyl)pyrimidin-5-yl]morpholine-4-carboxamide] | 3 | 1 | 5 | 3 | 4 | 3 | 1 | 4 | 0 | 2 | 1 | 0
7 | CN1CCN(c2cnc(-c3cncc(F)c3)nc2C(F)(F)F)C1=O [Compound E9, 1-[2-(5-fluoro-3-pyridyl)-4-(trifluoromethyl)pyrimidin-5-yl]-3-methyl-imidazolidin-2-one] | 1 | 0 | 3 | 2 | 4 | 1 | 1 | 2 | 0 | 1 | 1 | 0
8 | CCCOC(=O)Nc1cnc(-c2cncc(F)c2)nc1C(F)(F)F [Compound E10] | 4 | 0 | 5 | 3 | 4 | 1 | 1 | – | 0 | 2 | 1 | 0
9 | CC(C)(C)OC(=O)Nc1cnc(-c2cncnc2)nc1C(F)(F)F [Compound E11] | 3 | 0 | 4 | 3 | 4 | 2 | 1 | 4 | 1 | 2 | 1 | 0
